According to PMC4010472, “Pharmacokinetics and Efficacy of Topically Applied Nonsteroidal Anti-Inflammatory Drugs in Retinochoroidal Tissues in Rabbits” (PLoS ONE, 2014):
Entries after “also recorded” stand apart in the source; their conditions may differ. Read-outs that look alike come from different tables or passages of the source.

Key:
COX-1 = settings: cited from earlier work
[1] = repeated dosing simulated from single dose; diclofenac and amfenac (nepafenac) three/day at 8 hr interval, bromfenac two/day at 12 hr interval
human COX-1 = human COX-1 (Homo sapiens, UniProt P23219); experiment: biochemical
Description: The endogenous human COX-1 inhibitory activity was assayed by a published method with a slight modification, using venous blood of healthy volunteers with a written informed consent (obtained from Taipei Blood Center, Taipei, Taiwan). Test samples (0.3 to 1000 nM) and vehicle (1% dimethyl sulfoxide in the final assay) were pre-incubated with washed human platelets (5×10^7/mL) in modified buffer (Hanks' balanced salt solution with 15 mM HEPES, pH 7.4) for 15 minutes at 37°C. Arachidonic acid (100 µM, Cayman Chemical Co., Ann Arbor, MI) was added to initiate the reaction, and samples were incubated for an additional 15 minutes at 37°C. At the end of the incubation period, the reaction was terminated by the addition of 1 N HCl. Aliquots were then removed to determine the amount of PGE2 produced with the EIA kit. The amount of PGE2 was spectrophotometrically measured in the range of 50–6400 pg/mL at 450 nm according to the instructions of the kit using a competitive microtiter-based immunoassay method. Tests were performed with 7 concentrations of each drug to construct a dose-response curve and to determine the concentration causing a half-maximal inhibition (IC50) relative to the control values. Each series of concentrations was run in triplicate for each drug. […] The equation for a 4-parameter logistic fitting was, [drawing 1] […]

human COX-2 = target: T1, human COX-2 (Homo sapiens, UniProt P35354); experiment: COX-2 inhibitory activity, human recombinant COX-2, PGE2 EIA; assay type: biochemical; settings: for IC50: human recombinant COX-2, 0.3 µM arachidonic acid, PGE2 EIA, read-out: IC50 COX-2, [95% Confidence interval]
T1 construct: purchased Sigma-Aldrich; host or cells: baculovirus-infected Sf21 cells
T1 sequence (P35354 18-604): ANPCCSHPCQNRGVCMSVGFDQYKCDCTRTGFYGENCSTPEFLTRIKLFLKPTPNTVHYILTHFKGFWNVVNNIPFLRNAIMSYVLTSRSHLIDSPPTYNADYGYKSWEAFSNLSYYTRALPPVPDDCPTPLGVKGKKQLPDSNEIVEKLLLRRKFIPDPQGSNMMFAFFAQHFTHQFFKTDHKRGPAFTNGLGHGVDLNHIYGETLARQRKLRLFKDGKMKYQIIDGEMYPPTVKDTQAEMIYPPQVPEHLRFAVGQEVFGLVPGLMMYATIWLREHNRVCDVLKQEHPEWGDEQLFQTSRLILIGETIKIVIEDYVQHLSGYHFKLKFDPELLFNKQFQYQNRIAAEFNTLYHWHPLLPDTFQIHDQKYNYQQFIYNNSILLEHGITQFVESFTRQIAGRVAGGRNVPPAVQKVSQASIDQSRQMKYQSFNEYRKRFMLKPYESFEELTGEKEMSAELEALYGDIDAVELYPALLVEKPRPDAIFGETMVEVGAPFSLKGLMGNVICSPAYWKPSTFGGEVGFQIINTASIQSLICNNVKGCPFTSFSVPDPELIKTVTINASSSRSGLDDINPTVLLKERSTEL
Description: The endogenous human COX-1 inhibitory activity was assayed by a published method with a slight modification, using venous blood of healthy volunteers with a written informed consent (obtained from Taipei Blood Center, Taipei, Taiwan). Test samples (0.3 to 1000 nM) and vehicle (1% dimethyl sulfoxide in the final assay) were pre-incubated with washed human platelets (5×10^7/mL) in modified buffer (Hanks' balanced salt solution with 15 mM HEPES, pH 7.4) for 15 minutes at 37°C. Arachidonic acid (100 µM, Cayman Chemical Co., Ann Arbor, MI) was added to initiate the reaction, and samples were incubated for an additional 15 minutes at 37°C. At the end of the incubation period, the reaction was terminated by the addition of 1 N HCl. Aliquots were then removed to determine the amount of PGE2 produced with the EIA kit. The amount of PGE2 was spectrophotometrically measured in the range of 50–6400 pg/mL at 450 nm according to the instructions of the kit using a competitive microtiter-based immunoassay method. Tests were performed with 7 concentrations of each drug to construct a dose-response curve and to determine the concentration causing a half-maximal inhibition (IC50) relative to the control values. Each series of concentrations was run in triplicate for each drug. […] The equation for a 4-parameter logistic fitting was, [drawing 1]
where a is the maximum value of the sigmoid curve; b is the Hill slope; c is (a + d)/2 (or IC50); and d is the lowest value of the sigmoid curve.
Human recombinant COX-2 isolated from baculovirus-infected Sf21 cells (Sigma-Aldrich) was used for this assay. Test articles (0.1–1000 nM) and vehicle (1% dimethyl sulfoxide in the final assay) were pre-incubated with buffer (100 mM Tris-HCl, pH 7.7) containing 0.11 U COX-2, 1 mM glutathione, 1 µM hematin, and 0.5 mM phenol for 15 minutes at 37°C. Arachidonic acid (0.3 µM) was added to initiate the reaction, and samples were incubated for an additional 5 minutes at 37°C. At the end of the incubation period, the reaction was terminated by adding 1 N HCl. The amount of PGE2 produced was determined with the EIA kit, and the IC50 of each drug for COX-2 was obtained as described.

in vivo [2] = settings: Kbl:JW, rabbit, topical or ocular
[3] = Simulated repeated-dose pharmacokinetics in retinochoroidal tissue compared with IC50 of COX-2; design: species or system rabbit
COX-2 = settings: cited from earlier work
[4] = rabbit, in vivo
in vivo [5] = settings: Kbl:JW, rabbit, topical or ocular; remark: listed apart in the source
[6] = system: concanavalin A-induced retinochoroidal inflammation; experiment: Concanavalin A-induced intraocular inflammation, vitreous protein concentration (blood-retinal barrier breakdown); settings: rabbit, 72 hours after intravitreal Con A; 50 µL of 0.1% eye drops 3 times/day for 4 days, or indomethacin 20 mg/kg s.c. once a day; vs saline, Dunnett's test
[7] = system: laser-induced choroidal neovascularization; design: method as in PMID 21709668; settings: topical, rats ref 17; cited from earlier work
retinal PGE2 = settings: topical, lipopolysaccharide-injected rats ref 41; cited from earlier work
[8] = Ocular distribution after single topical instillation: retinochoroidal tissue (LC-MS/MS, non-compartmental PK); settings: Kbl:JW, rabbit, in vivo, topical or ocular, 30 µL of 0.1% eye drops
[9] = 21 day-once daily instillation of 0.1% 14C-bromfenac; 7.2 ng/mL × 80.5% ref 35; cited from earlier work
[10] = cited from earlier work
[11] = humans, adjunctive use of topical bromfenac ref 18; cited from earlier work
[12] = system: Con A-induced intraocular inflammation; design: method as in PMID 14635785; settings: 0.5% nepafenac eye drops, 5 times/day regimen ref 22; cited from earlier work
retinal vascular leakage = settings: topical, lipopolysaccharide-injected rats ref 41; cited from earlier work
[13] = sheep-derived enzymes or combination of sheep and recombinant human enzymes ref 23
[14] = sheep-derived enzymes or combination of sheep and recombinant human enzymes ref 24

Sequence of human COX-1 (P23219 24-599): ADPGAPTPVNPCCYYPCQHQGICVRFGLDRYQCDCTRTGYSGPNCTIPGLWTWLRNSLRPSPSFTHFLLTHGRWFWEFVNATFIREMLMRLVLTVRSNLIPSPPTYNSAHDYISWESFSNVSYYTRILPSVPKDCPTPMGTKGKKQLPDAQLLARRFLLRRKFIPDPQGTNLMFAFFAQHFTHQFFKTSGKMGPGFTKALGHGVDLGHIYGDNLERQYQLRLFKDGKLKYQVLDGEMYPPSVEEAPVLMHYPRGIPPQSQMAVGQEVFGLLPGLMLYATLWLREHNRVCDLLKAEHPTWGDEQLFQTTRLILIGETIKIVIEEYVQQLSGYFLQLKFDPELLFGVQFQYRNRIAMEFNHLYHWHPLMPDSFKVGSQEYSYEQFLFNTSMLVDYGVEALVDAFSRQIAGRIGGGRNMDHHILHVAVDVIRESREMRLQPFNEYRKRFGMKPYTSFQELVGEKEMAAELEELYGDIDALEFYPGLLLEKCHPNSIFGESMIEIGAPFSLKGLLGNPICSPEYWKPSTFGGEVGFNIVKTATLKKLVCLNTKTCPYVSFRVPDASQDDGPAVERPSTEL

Row | SMILES | Cmax (in vivo [2]) [ng/g] | AUC0–8 [4] [ng·h/g] | AUC(0-t) (in vivo [5]; in vivo) [ng·h/mL] | Cmax (in vivo [5]; in vivo) [ng/mL] | IC50 (COX-1; [13]) [nM] | IC50 (human COX-2) [nM] | IC50 (COX-2; [13]) [nM] | protein concentration in the vitreous body [6] | retinal PGE2 levels (retinal PGE2) | further results
1 | Nc1c(CC(=O)O)cccc1C(=O)c1ccc(Br)cc1 [Bromfenac, 2-amino-3-(4-bromobenzoyl) phenylacetic acid] | 15.8 ± 7.2 | […] | […] | […] | […] | 7.45 | […] | […] | […] | inhibitory activity on COX-2, times more potent than amfenac (human COX-2; bromfenac vs amfenac): […]; inhibitory activity on COX-2, times more potent than diclofenac (human COX-2; bromfenac vs diclofenac): […]; laser-induced choroidal neovascularization [7]: inhibited; simulated concentration in retinochoroidal tissues at 8 hours after the last instillation ([3]; simulation model, 21 day-once daily instillation (data not shown)): […]; half-life [8]: 4.69 h; concentration of bromfenac in retinochoroidal tissues at 8 hours after the last instillation [9]: […]; hydrophobicity (Log P) ([10]; ref 27): […]; hydrophobicity (Log P) ([10]; ref 33): 3.22; frequency of intravitreous ranibizumab [11]: could reduce; half-life (in vivo [5]; in vivo, 30 µL of 0.1% eye drops): […]
2 | NC(=O)Cc1cccc(C(=O)c2ccccc2)c1N [Nepafenac, nepafenac] | – | – | – | – | – | – | – | decrease was not significant | significantly reduced | Tmax (in vivo [5]; aqueous humor, 30 µL of 0.1% eye drops): 0.5 h; inhibition of the breakdown of the blood-retinal barrier [12]: significantly inhibit
3 | COc1ccc2c(c1)c(CC(=O)O)c(C)n2C(=O)c1ccc(Cl)cc1 [indomethacin] | – | – | – | – | – | – | – | significantly reduced | significantly reduced | retinal vascular leakage (retinal vascular leakage): able to prevent

Continued, in another order:

Row | Cmax (in vivo [2]) [ng/g] | AUC0–8 [4] [ng·h/g] | AUC(0-t) (in vivo [5]; in vivo) [ng·h/mL] | Cmax (in vivo [5]; in vivo) [ng/mL] | SMILES | IC50 (COX-1; [13]) [nM] | IC50 (human COX-2) [nM] | IC50 (COX-2; [13]) [nM] | protein concentration in the vitreous body [6] | retinal PGE2 levels (retinal PGE2) | further results
4 | 12.5 ± 7.2 | 41.9 ± 3.4 | 131 ± 11 | 25.9 ± 7.4 | Nc1c(CC(=O)O)cccc1C(=O)c1ccccc1 [Amfenac, amfenac] | 138 | 20.4 | 1.77 | – | – | IC50 (COX-1; [14]): 250 nM; simulated concentration in aqueous humor relative to IC50 of COX-2 [1]: almost always higher than the IC50 of COX-2 although it was slightly less than the IC50 at the trough level; IC50 (human COX-1): 15.3 nM; Ratio of IC50: IC50 for COX-2/IC50 for COX-1 (human COX-2; human COX-2 to COX-1): 1.3; simulated concentration in retinochoroidal tissue relative to IC50 of COX-2 ([3]; repeated dosing simulated from single dose, diclofenac and amfenac (nepafenac) three/day at 8 hr interval, bromfenac two/day at 12 hr interval): lower than the corresponding IC50 values at the troughs; also recorded: less than the IC50 of COX-2 at the trough level; IC50 (COX-2; [14]): 150 nM
5 | 38.2 ± 18.1 | 119 ± 27 | 972 ± 44 | 300 ± 110 | O=C(O)Cc1ccccc1Nc1c(Cl)cccc1Cl [Diclofenac, diclofenac] | – | – | – | decrease was not significant | – | half-life (in vivo [2]): 1.89 h; k el (in vivo [2]): 0.000102 s⁻¹; hydrophobicity (Log P) ([10]; ref 32): 4.31; half-life (in vivo [5]; in vivo): 1.94 h; k el (in vivo [5]; in vivo): 9.94e-05 s⁻¹
